32 compounds from patent US20110319431A1, “Bis Aromatic Compounds for Use as LTC4 Synthase Inhibitors” (BIOLIPOX AB, priority 2009, published 2011) can be followed below.

Structures are written as SMILES.

One experiment concerns the target T1, Recombinant human LTC4 synthase (Homo sapiens, UniProt Q16873).
T1 construct: made in house; host or cells: Pichia pastoris
T1 sequence (Q16873 1-150): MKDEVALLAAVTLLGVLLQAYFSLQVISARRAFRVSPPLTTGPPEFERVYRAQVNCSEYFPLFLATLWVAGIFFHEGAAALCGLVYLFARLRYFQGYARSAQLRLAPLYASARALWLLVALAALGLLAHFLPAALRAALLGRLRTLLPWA
As to the kind of experiment: In vitro LTC4 synthase assay (LTA4 to LTC4, HTRF detection). The following applies: 5 min; total concentration of title compounds in the assay 10 μM. It counts as biochemical. The protocol:
In the assay, LTC4 synthase catalyses the reaction where the substrate LTA4 is converted to LTC4. Recombinant human LTC4 synthase is expressed in Piccia pastoralis and the purified enzyme is dissolved in 25 mM tris-buffer pH 7.8 supplemented with 0.1 mM glutathione (GSH) and stored at −80° C. The assay is performed in phosphate buffered saline (PBS) pH 7.4 and 5 mM GSH in 384-well plates.
The following is added chronologically to each well:
1. 48 μL LTC4 synthase in PBS with 5 mM GSH. The total protein concentration in this solution is 0.5 μg/mL. 2. 1 μL inhibitor in DMSO (final concentration 10 μM). 3. Incubation of the plate at room temperature for 10 min. 4. 1 μL LTA4 (final concentration 2.5 μM). 5. Incubation of the plate at room temperature for 5 min. 6. 10 μL of the incubation mixture is analysed using homogenous time resolved fluorescent (HTRF) detection.
Take `CN(c1ccc(Cl)cc1)c1ccc(C(=O)c2ccc(S(=O)(=O)c3ccc(Cl)cc3)c(C(=O)O)c2)cc1` [Example 3:2, 5-{4-[(4-Chlorophenyl)(methyl)amino]benzoyl}-2-(4-chlorophenylsulfonyl)benzoic acid]: the inhibition at 10 µM is 98%. With `CCCCCCS(=O)(=O)c1ccc(C(=O)c2ccc(N(C)c3ccc(Cl)cc3)cc2)cc1C(=O)O` [Example 3:1, 5-{4-[(4-Chlorophenyl)(methyl)amino]benzoyl}-2-(1-hexylsulfonyl)benzoic acid], the inhibition at 10 µM turned out to be 97%. Same read-out and setting: the value for `CN(c1ccc(Cl)cc1)c1ccc(C(=O)c2ccc([S+]([O-])c3ccc(F)c(F)c3)c(C(=O)O)c2)cc1` (stereo not drawn) [1:3, 5-{4-[(4-Chlorophenyl)(methyl)amino]benzoyl}2-(3,4-difluorophenylsulfinyl)-benzoic acid] was 100%.

`CCCCCC[S+]([O-])c1ccc(C(=O)c2ncc(N(C)c3ccc(Cl)cc3)cn2)cc1C(=O)O` (stereo not drawn) [Example 1:21, 5-(5-((4-Chlorophenyl)(methyl)amino)pyrimidine-2-carbonyl)-2-(1-hexylsulfinyl)-benzoic acid]: the inhibition at 10 µM turned out to be 99%.

Staying with this experiment, now noted: Table 4, title compounds of Example 4.
For the compound `COc1cccc(Sc2cc(C(=O)O)cc(C(=O)c3ccc(N(C)c4ccc(Cl)cc4)cc3)c2)c1` [4:5, 3-{4-[(4-Chlorophenyl)(methyl)amino]benzoyl}-5-(3-methoxyphenyl-sulfanyl)benzoic acid], the IC50 worked out at 143 nM.

As to `CN(c1ccc(Cl)cc1)c1ccc(C(=O)c2cc(Sc3cccc(OC(F)(F)F)c3)cc(C(=O)O)c2)cc1` [4:8, 3-{4-[(4-Chlorophenyl)(methyl)amino]benzoyl}-5-(3-(trifluoromethoxy)-phenylsulfanyl)benzoic acid], the half-maximal inhibitory concentration (IC50) was determined as 148 nM.

For `CCCCCC[S+]([O-])c1cc(C(=O)O)cc(C(=O)c2ccc(N(C)c3ccc(Cl)cc3)cn2)c1` (stereo not drawn) [Example 4:2, 3-{5-[(4-Chlorophenyl)(methyl)amino]picolinoyl}-5-(1-hexylsulfinyl)-benzoic acid], the IC50 was found to be 404 nM. Same read-out and setting: as for `CN(c1ccc(Cl)cc1)c1ccc(C(=O)c2cc(Sc3ccccc3)cc(C(=O)O)c2)nc1` [4:4, 3-{5-[(4-Chlorophenyl)(methyl)amino]picolinoyl}-5-phenylsulfanylbenzoic acid], the figure is 135 nM; as for `CN(c1ccc(Cl)cc1)c1ccc(C(=O)c2cc(Sc3ccccc3)cc(C(=O)O)c2)cc1` [4:10, 3-{4-[(4-Chlorophenyl)(methyl)amino]benzoyl}-5-(phenysulfanyl)benzoic acid], 175 nM; as for `CCCCCCSc1cc(C(=O)O)cc(C(=O)c2ccc(N(C)c3ccc(Cl)cc3)cn2)c1` [4:3, 3-{5-[(4-Chlorophenyl)(methyl)amino]picolinoyl}-5-(1-hexyl)-sulfanylbenzoic acid], 215 nM.

Staying with this experiment, now noted: title compounds of the Examples.
With `CCCCCCSc1cc(C(=O)O)cc(C(=O)c2ccc(N(C)c3ccc(Cl)cc3)cn2)c1` [2:23, 3-{5-[(4-Chlorophenyl)methylamino]pyridine-2-carbonyl}-5-(1-hexyl)-sulfanylbenzoic acid], the IC50 amounted to 215 nM.

Consider `CN(c1ccc(Cl)cc1)c1ccc(C(=O)c2ccc(SCC34CCC(CC3O)C4(C)C)c(C(=O)O)c2)cc1` (stereo not drawn) [2:4, 5-{4-[(4-Chlorophenyl)methylamino]benzoyl}-2-(2-hydroxy-7,7-dimethyl-bicyclo[2.2.1]-1-heptylmethylsulfanyl)benzoic acid], for which the IC50 stood at 130 nM. For `CN(c1ccc(Cl)cc1)c1ccc(C(=O)c2ccc(S(=O)(=O)c3ccc(Cl)cc3)c(C(=O)O)c2)cc1` [Example 3:2, 5-{4-[(4-Chlorophenyl)(methyl)amino]benzoyl}-2-(4-chlorophenylsulfonyl)benzoic acid], the 50% inhibitory concentration (IC50) is 635 nM. Take `O=C(c1ccc(Sc2ccc(Br)cc2)c(C(=O)O)c1)c1ccc(N(CC2CC2)c2ccc(Cl)cc2)cn1` [2:17, 2-(4-Bromophenylsulfanyl)-5-{5-[(4-chlorophenyl)cyclopropylmethyl-amino]pyridine-2-carbonyl}benzoic acid]: the IC50 was 102 nM. The same measure, in the same setting: as for `CCCCCCS(=O)(=O)c1ccc(C(=O)c2ccc(N(C)c3ccc(Cl)cc3)cc2)cc1C(=O)O` [Example 3:1, 5-{4-[(4-Chlorophenyl)(methyl)amino]benzoyl}-2-(1-hexylsulfonyl)benzoic acid], the figure is 398 nM; as for `CCCCCCSc1ccc(C(=O)c2ccc(N(CC3CC3)c3ccc(Cl)cc3)cn2)cc1C(=O)O` [2:15, 5-{5-[(4-Chlorophenyl)cyclopropylmethylamino]pyridine-2-carbonyl}-2-(1-hexylsulfanyl)benzoic acid], 96 nM; as for `CN(c1ccc(Cl)cc1)c1ccc(C(=O)c2ccc([S+]([O-])c3ccccc3)c(C(=O)O)c2)cc1` (stereo not drawn) [1:8, 5-{4-[(4-Chlorophenyl)(methyl)amino]benzoyl}-2-(phenylsulfinyl)benzoic acid], 82 nM.

Consider `CCCCCC[S+]([O-])c1ccc(C(=O)c2ccc(N(C)c3ccc(Cl)cc3)cn2)cc1C(=O)O` (stereo not drawn) [Example 1:22, 5-{5-[(4-Chlorophenyl)methylamino]pyridine-2-carbonyl}-2-(1-hexylsulfinyl)-benzoic acid], for which the half-inhibitory concentration (IC50) is 41 nM.

With `O=C(c1ccc(Sc2cccc(Cl)c2)c(C(=O)O)c1)c1ccc(N(CC2CC2)c2ccc(Cl)cc2)cn1` [2:18, 5-{5-[(4-Chlorophenyl)cyclopropylmethylamino]pyridine-2-carbonyl}-2-(3-chlorophenylsulfanyl)benzoic acid], the IC50 came to 46 nM.

With `COc1cccc(Sc2cc(C(=O)O)cc(C(=O)c3ccc(N(C)c4ccc(Cl)cc4)cc3)c2)c1` [2:25, 3-(4-((4-Chlorophenyl)(methyl)amino)benzoyl)-5-(3-methoxyphenylsulfanyl)benzoic acid], the IC50 worked out at 143 nM. On the same count and under the same terms, as for `O=C(c1ccc([S+]([O-])c2ccc(Br)cc2)c(C(=O)O)c1)c1ccc(N(CC2CC2)c2ccc(Cl)cc2)cn1` (stereo not drawn) [1:17, 2-(4-Bromophenylsulfinyl)-5-{5-[(4-chlorophenyl)cyclopropylmethylamino]-pyridine-2-carbonyl}benzoic acid], the figure is 34 nM.

As to `O=C(c1ccc(N(CC2CC2)c2ccc(Cl)cc2)cc1)c1ccc(Sc2ccccc2)c(C(=O)O)c1` [2:8, 5-{4-[(4-Chlorophenyl)cyclopropylmethylamino]benzoyl}-2-phenylsulfanyl-benzoic acid], the IC50 came to 74 nM.

`CN(c1ccc(Cl)cc1)c1ccc(C(=O)c2ccc(Sc3ccc(F)c(F)c3)c(C(=O)O)c2)nc1` [2:6]: the IC50 stood at 47 nM. Still for that read-out and setting: as for `CN(c1ccc(Cl)cc1)c1ccc(C(=O)c2cc(Sc3cccc(OC(F)(F)F)c3)cc(C(=O)O)c2)cc1` [2:28, 3-(4-((4-Chlorophenyl)(methyl)amino)benzoyl)-5-(3-(trifluoromethoxy)phenylsulfanyl)benzoic acid], the figure is 148 nM; as for `CCCCCC[S+]([O-])c1ccc(C(=O)c2ccc(N(CC3CC3)c3ccc(Cl)cc3)cc2)cc1C(=O)O` (stereo not drawn) [Example 1:12, 5-{4-[(4-Chlorophenyl)cyclopropylmethylamino]benzoyl}-2-(1-hexylsulfinyl)-benzoic acid], 29 nM; as for `O=C(c1ccc(Sc2ccc(F)c(F)c2)c(C(=O)O)c1)c1ccc(N(CC2CC2)c2ccc(Cl)cc2)cn1` [2:16, 5-{5-[(4-Chlorophenyl)cyclopropylmethylamino]pyridine-2-carbonyl}-2-(3,4-difluorophenylsulfanyl)benzoic acid], 41 nM. Same read-out and setting: the value for `O=C(c1ccc([S+]([O-])c2cccc(C(F)(F)F)c2)c(C(=O)O)c1)c1ccc(N(CC2CC2)c2ccc(Cl)cc2)cn1` (stereo not drawn) [1:15, 5-{5-[(4-Chlorophenyl)cyclopropylmethylamino]pyridine-2-carbonyl}-2-(3-tri-fluoromethylphenylsulfinyl)benzoic acid] was 28 nM. Take `CN(c1ccc(Cl)cc1)c1ccc(C(=O)c2ccc([S+]([O-])c3ccc(F)c(F)c3)c(C(=O)O)c2)cc1` (stereo not drawn) [1:3, 5-{4-[(4-Chlorophenyl)(methyl)amino]benzoyl}2-(3,4-difluorophenylsulfinyl)-benzoic acid]: the IC50 amounted to 107 nM. On the same count and under the same terms, the value for `O=C(c1ccc(Sc2ccc(C(F)(F)F)cc2)c(C(=O)O)c1)c1ccc(N(CC2CC2)c2ccc(Cl)cc2)cn1` [2:13, 5-{5-[(4-Chlorophenyl)cyclopropylmethylamino]pyridine-2-carbonyl}-2-(4-trifluoromethylphenylsulfanyl)benzoic acid] was 129 nM; that for `CCCCCC[S+]([O-])c1ccc(C(=O)c2ncc(N(C)c3ccc(Cl)cc3)cn2)cc1C(=O)O` (stereo not drawn) [Example 1:21, 5-(5-((4-Chlorophenyl)(methyl)amino)pyrimidine-2-carbonyl)-2-(1-hexylsulfinyl)-benzoic acid] was 54 nM. Same read-out and setting: as for `CN(c1ccc(Cl)cc1)c1ccc(C(=O)c2ccc([S+]([O-])C3CCCC3)c(C(=O)O)c2)cc1` (stereo not drawn) [1:4, 5-{4-[(4-Chlorophenyl)(methyl)amino]benzoyl}-2-(cyclopentylsulfinyl)benzoic acid], the figure is 161 nM. Same read-out and setting: as for `CN(c1ccc(Cl)cc1)c1ccc(C(=O)c2ccc([S+]([O-])Cc3ccccc3)c(C(=O)O)c2)cc1` (stereo not drawn) [1:9, 2-(Benzylsulfinyl)-5-{4-[(4-chlorophenyl)(methyl)amino]benzoyl}benzoic acid], the figure is 109 nM; as for `CN(c1ccc(Cl)cc1)c1ccc(C(=O)c2ccc([S+]([O-])CC34CCC(CC3O)C4(C)C)c(C(=O)O)c2)cc1` (stereo not drawn) [1:10, 5-{4-[(4-Chlorophenyl)(methyl)amino]benzoyl}-2-[(2-hydroxy-7,7-dimethyl-bicyclo[2.2.1]-1-heptyl)methylsulfinyl]benzoic acid], 86 nM; as for `CN(c1ccc(Cl)cc1)c1ccc(C(=O)c2cc(Sc3ccccc3)cc(C(=O)O)c2)cc1` [2:30, 3-(4-((4-Chlorophenyl)(methyl)amino)benzoyl)-5-(phenysulfanyl)benzoic acid], 175 nM. For the compound `O=C(c1ccc(Sc2ccccc2)c(C(=O)O)c1)c1ccc(N(CC2CC2)c2ccc(Cl)cc2)cn1` [2:14, 5-{5-[(4-Chlorophenyl)cyclopropylmethylamino]pyridine-2-carbonyl}-2-phenylsulfanylbenzoic acid], the IC50 was found to be 47 nM.

The experiment is the same for the next values; noted with them: value printed in the text of Example 4:1.
For the compound `CN(c1ccc(Cl)cc1)c1ccc(C(=O)c2cc(C(=O)O)cc([S+]([O-])c3ccc(F)c(F)c3)c2)cc1` (stereo not drawn) [Example 4:1, 3-{4-[(4-Chlorophenyl)(methyl)amino]benzoyl}-5-(3,4-difluorophenylsulfinyl)-benzoic acid], the IC50 worked out at 212 nM.
